What was measured:
[1] = system: A549-ACE2; assay: drug-induced phospholipidosis relative to tamoxifen; higher = more phospholipidosis
[2] = system: A549-ACE2 infected with SARS-CoV-2; assay: SARS-CoV-2 infection rate relative to DMSO; higher = more infection; conditions: 24 h
[3] = system: U2OS; assay: relative viability EC50 (midpoint between 100% and the lowest measured viability); higher = less toxic; conditions: 72 h
[4] = system: Calu-3; assay: as above; conditions: 72 h
[5] = system: Caco-2; assay: as above; conditions: 72 h
[6] = system: HepG2; assay: as above; conditions: 72 h
[7] = system: Vero E6; assay: as above; conditions: 72 h
[8] = system: U2OS; assay: cell viability relative to DMSO; higher = less toxic; conditions: 72 h
[9] = system: Calu-3; assay: as above; conditions: 72 h
[10] = system: Caco-2; assay: as above; conditions: 72 h
[11] = system: HepG2; assay: as above; conditions: 72 h
[12] = system: Vero E6; assay: as above; conditions: 72 h
[13] = system: U2OS; assay: drug sensitivity score (DSS) for viability; higher = more toxic; extreme values may be limits of the assay; conditions: 72 h
[14] = system: Calu-3; assay: as above; conditions: 72 h
[15] = system: Caco-2; assay: as above; conditions: 72 h
[16] = system: HepG2; assay: as above; conditions: 72 h
[17] = system: Vero E6; assay: as above; conditions: 72 h
[18] = system: A549-ACE2 infected with SARS-CoV-2; assay: cell count relative to DMSO; higher = less toxic; conditions: 24 h
[19] = system: A549-ACE2 infected with SARS-CoV-2; assay: morphology score (similarity to uninfected cells); higher = more like uninfected cells; conditions: 24 h
[20] = system: A549-ACE2; assay: phospholipidosis EC50; higher = less potent phospholipidosis inducer

COc1ccc2cc1Oc1ccc(cc1)C[C@H]1c3c(cc4c(c3Oc3cc5c(cc3OC)CCN(C)[C@@H]5C2)OCO4)CCN1C [cepharanthine]
drug-induced phospholipidosis [%], [1]
Conditions	0.3 µM	0.833333 µM	3.33333 µM	6.66667 µM	10 µM	30 µM
24 h	9.38	2.99	21.4	34.2	49.7	34.6
48 h	6.7	5.05	19.4	29.3	35.4	–
72 h	6.61	3.04	15.2	24.3	32.4	–

Conditions	SARS-CoV-2 infection rate, [2] [%]	cell count, [18] [%]	cell viability, [8] [%]	cell viability, [9] [%]	cell viability, [10] [%]	cell viability, [11] [%]	cell viability, [12] [%]	morphology score, [19]
1 nM	–	–	95.7	105	93.5	99.5	95.7	–
10 nM	–	–	104	107	102	87.8	98.8	–
100 nM	–	–	97	99.3	105	95.9	96	–
0.3 µM	98	104	–	–	–	–	–	0.04
1000 nM	–	–	97.7	96.5	108	87.7	88.9	–
3 µM	75	111	–	–	–	–	–	0.53
10 µM	69	122	–	–	–	–	–	0.79
10000 nM	–	–	86.5	78.7	93.1	93.7	92.9	–
30 µM	27	104	–	–	–	–	–	0.49

Conditions	drug sensitivity score	relative viability EC50 [µM]
[3]	–	> 10
[4]	–	> 10
[5]	–	> 10
[6]	–	> 10
[7]	–	> 10
[13]	0.3	–
[14]	1.2	–
[15]	0	–
[16]	0	–
[17]	0	–

CCN(CC)CCOC(=O)C1(C2CCCCC2)CCCCC1 [dicycloverine]
drug-induced phospholipidosis [%], [1]
Conditions	0.3 µM	0.833333 µM	3.33333 µM	6.66667 µM	10 µM	30 µM
24 h	4.66	1.82	4.06	5.19	6.77	68.6
48 h	6.16	1.46	3.34	3.8	4.6	45.9
72 h	5.16	-0.588	0.239	2.22	2.64	30.3

Conditions	SARS-CoV-2 infection rate, [2] [%]	cell count, [18] [%]	cell viability, [8] [%]	cell viability, [9] [%]	cell viability, [10] [%]	cell viability, [11] [%]	cell viability, [12] [%]	morphology score, [19]
1 nM	–	–	97	93.2	99.3	95.7	96.1	–
10 nM	–	–	99.3	104	95.6	97.6	94	–
100 nM	–	–	99.3	91.8	97.2	103	98	–
0.3 µM	94	97	–	–	–	–	–	0.02
1000 nM	–	–	108	91.8	98.1	98.7	92.6	–
3 µM	66	112	–	–	–	–	–	0.62
10 µM	46	114	–	–	–	–	–	0.78
10000 nM	–	–	104	102	102	105	108	–
30 µM	34	118	–	–	–	–	–	0.84

Conditions	drug sensitivity score	relative viability EC50 [µM]
[3]	–	> 10
[4]	–	> 10
[5]	–	> 10
[6]	–	> 10
[7]	–	> 10
[13]	0	–
[14]	0	–
[15]	0	–
[16]	0	–
[17]	0	–

Cc1ncc(NC(=O)c2ccc(CN3CCN(C)CC3)c(C(F)(F)F)c2)cc1Nc1nccc(-c2cccnc2)n1 [flumatinib]
drug-induced phospholipidosis [%], [1]
Conditions	0.3 µM	0.833333 µM	3.33333 µM	6.66667 µM	10 µM	30 µM
24 h	4.03	13.9	49.2	98.5	106	5.86
48 h	3.51	7.4	29.5	74.1	89.4	–
72 h	4.57	8.79	24.7	66.2	84.5	–

Conditions	SARS-CoV-2 infection rate [%]	cell count [%]	cell viability [%]	morphology score	phospholipidosis EC50 [µM]
[2], 0.3 µM	96	–	–	–	–
[2], 3 µM	59	–	–	–	–
[2], 10 µM	45	–	–	–	–
[2], 30 µM	19	–	–	–	–
[9], 1 nM	–	–	104	–	–
[9], 10 nM	–	–	92.7	–	–
[9], 100 nM	–	–	102	–	–
[9], 1000 nM	–	–	100	–	–
[9], 10000 nM	–	–	93.1	–	–
[10], 1 nM	–	–	105	–	–
[10], 10 nM	–	–	107	–	–
[10], 100 nM	–	–	101	–	–
[10], 1000 nM	–	–	95.5	–	–
[10], 10000 nM	–	–	83.2	–	–
[11], 1 nM	–	–	96.4	–	–
[11], 10 nM	–	–	108	–	–
[11], 100 nM	–	–	102	–	–
[11], 1000 nM	–	–	93.5	–	–
[11], 10000 nM	–	–	39.9	–	–
[12], 1 nM	–	–	95.8	–	–
[12], 10 nM	–	–	101	–	–
[12], 100 nM	–	–	99.3	–	–
[12], 1000 nM	–	–	97.4	–	–
[12], 10000 nM	–	–	84.3	–	–
[18], 0.3 µM	–	105	–	–	–
[18], 3 µM	–	120	–	–	–
[18], 10 µM	–	124	–	–	–
[18], 30 µM	–	117	–	–	–
[19], 0.3 µM	–	–	–	0.25	–
[19], 3 µM	–	–	–	0.65	–
[19], 10 µM	–	–	–	0.69	–
[19], 30 µM	–	–	–	0	–
[20], 24 h	–	–	–	–	3.17
[20], 48 h	–	–	–	–	4.74
[20], 72 h	–	–	–	–	5.39

Conditions	drug sensitivity score	relative viability EC50 [µM]
[4]	–	> 10
[5]	–	> 10
[6]	–	2.28
[7]	–	> 10
[14]	0	–
[15]	0.8	–
[16]	4.3	–
[17]	0.5	–

CSc1ccc2c(c1)N(CCC1CCCCN1C)c1ccccc1S2 (centres undefined) [thioridazine]
drug-induced phospholipidosis [%], [1]
Conditions	0.3 µM	0.833333 µM	3.33333 µM	6.66667 µM	10 µM	30 µM
24 h	14.9	4.83	47.8	79.3	86	44.9
48 h	9.22	4.87	28.5	86.4	99.3	–
72 h	7.14	2.71	20	83.7	117	–

Conditions	SARS-CoV-2 infection rate [%]	cell count [%]	cell viability [%]	morphology score	phospholipidosis EC50 [µM]
[2], 0.1 µM	94	–	–	–	–
[2], 0.3 µM	101	–	–	–	–
[2], 1 µM	82	–	–	–	–
[2], 3 µM	21	–	–	–	–
[8], 1 nM	–	–	105	–	–
[8], 10 nM	–	–	103	–	–
[8], 100 nM	–	–	102	–	–
[8], 1000 nM	–	–	103	–	–
[8], 10000 nM	–	–	74.7	–	–
[9], 1 nM	–	–	104	–	–
[9], 10 nM	–	–	110	–	–
[9], 100 nM	–	–	96.8	–	–
[9], 1000 nM	–	–	96.2	–	–
[9], 10000 nM	–	–	31.4	–	–
[10], 1 nM	–	–	110	–	–
[10], 10 nM	–	–	100	–	–
[10], 100 nM	–	–	105	–	–
[10], 1000 nM	–	–	105	–	–
[10], 10000 nM	–	–	69.5	–	–
[11], 1 nM	–	–	105	–	–
[11], 10 nM	–	–	110	–	–
[11], 100 nM	–	–	104	–	–
[11], 1000 nM	–	–	102	–	–
[11], 10000 nM	–	–	44.5	–	–
[12], 1 nM	–	–	106	–	–
[12], 10 nM	–	–	103	–	–
[12], 100 nM	–	–	104	–	–
[12], 1000 nM	–	–	102	–	–
[12], 10000 nM	–	–	69.7	–	–
[18], 0.1 µM	–	106	–	–	–
[18], 0.3 µM	–	104	–	–	–
[18], 1 µM	–	110	–	–	–
[18], 3 µM	–	121	–	–	–
[19], 0.1 µM	–	–	–	0.31	–
[19], 0.3 µM	–	–	–	0.1	–
[19], 1 µM	–	–	–	0.34	–
[19], 3 µM	–	–	–	0.84	–
[20], 24 h	–	–	–	–	3.21
[20], 48 h	–	–	–	–	4.53
[20], 72 h	–	–	–	–	5.9

Conditions	drug sensitivity score	relative viability EC50 [µM]
[4]	–	2.72
[6]	–	3.36
[13]	0.8	–
[14]	4.3	–
[15]	1.1	–
[16]	2.8	–
[17]	1.2	–

CCN(CC)CCOc1ccc2c(c1)C(=O)c1cc(OCCN(CC)CC)ccc1-2 [tilorone]
drug-induced phospholipidosis [%], [1]
Conditions	0.3 µM	0.833333 µM	3.33333 µM	6.66667 µM	10 µM	30 µM
24 h	-3.79	-6.82	-21.7	-22.6	-23.9	-27.5
48 h	2.58	-4.68	-11.7	-11.1	-10	-8.85
72 h	3.61	-1.19	-2.58	0.944	-0.898	–

Conditions	SARS-CoV-2 infection rate, [2] [%]	cell count, [18] [%]	cell viability, [8] [%]	cell viability, [9] [%]	cell viability, [10] [%]	cell viability, [11] [%]	cell viability, [12] [%]	morphology score, [19]
1 nM	–	–	103	103	102	98.4	106	–
10 nM	–	–	104	101	102	93.2	104	–
0.1 µM	88	102	–	–	–	–	–	0.26
100 nM	–	–	100	95.7	97.1	91.3	97.5	–
0.3 µM	84	106	–	–	–	–	–	0.37
1 µM	77	102	–	–	–	–	–	0.45
1000 nM	–	–	95.9	96.6	95	96.8	100	–
3 µM	46	108	–	–	–	–	–	0.5
10000 nM	–	–	98.9	78.8	78.4	15.8	35.2	–

Conditions	drug sensitivity score	relative viability EC50 [µM]
[3]	–	> 10
[4]	–	> 10
[5]	–	> 10
[6]	–	2.87
[7]	–	3.19
[13]	0	–
[14]	1.2	–
[15]	1.3	–
[16]	5.1	–
[17]	3.5	–

Source: the supplement of paper PMC13380429
